Measurements published in paper doi:10.1101/2021.04.08.439011v1 (biorxiv, 2021).
Like-named read-outs stand apart in the source and are kept apart here.

What was measured:
ABL1(F317I) = ABL1(F317I) (Homo sapiens, UniProt P00519, F317I); settings: 0.1 µM, binder
AURKB = AURKB (Homo sapiens, UniProt Q96GD4); settings: 0.1 µM; binder
AXL = AXL (Homo sapiens, UniProt P30530); settings: 0.1 µM; binder
CDKL5 = CDKL5 (Homo sapiens, UniProt O76039); settings: 0.1 µM; binder
CSNK1D = CSNK1D (Homo sapiens, UniProt P48730); settings: 0.1 µM; binder
DDR2 = DDR2 (Homo sapiens, UniProt Q16832); settings: 0.1 µM; binder
EGFR(L858R) = EGFR(L858R) (Homo sapiens, UniProt P00533, L858R); settings: 0.1 µM; binder
ERK2 = ERK2 (Homo sapiens, UniProt P28482); settings: 0.1 µM; binder
ERN1 = ERN1 (Homo sapiens, UniProt O75460); settings: 0.1 µM; binder
FGFR1 = FGFR1 (Homo sapiens, UniProt P11362); settings: 0.1 µM; binder
Chain of FGFR1 (P11362 whole entry): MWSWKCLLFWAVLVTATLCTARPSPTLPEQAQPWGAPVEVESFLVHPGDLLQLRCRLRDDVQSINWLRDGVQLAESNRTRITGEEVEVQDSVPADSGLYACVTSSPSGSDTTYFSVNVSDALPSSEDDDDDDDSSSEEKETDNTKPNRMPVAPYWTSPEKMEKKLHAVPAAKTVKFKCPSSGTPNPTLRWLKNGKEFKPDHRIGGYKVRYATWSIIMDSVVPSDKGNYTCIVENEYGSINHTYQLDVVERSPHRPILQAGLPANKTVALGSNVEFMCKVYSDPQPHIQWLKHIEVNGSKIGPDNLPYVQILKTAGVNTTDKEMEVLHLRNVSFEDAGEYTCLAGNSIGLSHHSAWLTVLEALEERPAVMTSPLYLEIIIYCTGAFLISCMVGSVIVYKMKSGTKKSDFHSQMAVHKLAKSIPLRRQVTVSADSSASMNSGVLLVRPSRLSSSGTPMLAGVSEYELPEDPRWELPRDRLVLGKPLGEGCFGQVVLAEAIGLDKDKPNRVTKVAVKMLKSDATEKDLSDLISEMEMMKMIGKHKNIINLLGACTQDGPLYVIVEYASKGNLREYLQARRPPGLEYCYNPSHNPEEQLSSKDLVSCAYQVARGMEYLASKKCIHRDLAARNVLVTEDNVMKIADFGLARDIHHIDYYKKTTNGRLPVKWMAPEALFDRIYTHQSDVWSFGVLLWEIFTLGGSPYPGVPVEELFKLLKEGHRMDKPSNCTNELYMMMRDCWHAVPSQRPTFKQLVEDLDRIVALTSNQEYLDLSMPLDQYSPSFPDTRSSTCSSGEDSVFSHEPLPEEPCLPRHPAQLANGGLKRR

FLT3(D835Y) = FLT3(D835Y) (Homo sapiens, UniProt P36888, D835Y); settings: 0.1 µM; binder
IKK-epsilon = IKK-epsilon (Homo sapiens, UniProt Q14164); settings: 0.1 µM; binder
INSR = INSR (Homo sapiens, UniProt P06213); settings: 0.1 µM; binder
KIT(V559D,T670I) = KIT(V559D,T670I) (Homo sapiens, UniProt P10721, T670I/V559D); settings: 0.1 µM; binder
LOK = LOK (Homo sapiens, UniProt O94804); settings: 0.1 µM; binder
MAK = MAK (Homo sapiens, UniProt P20794); settings: 0.1 µM; binder
MAP3K12 = MAP3K12 (Homo sapiens, UniProt Q12852); settings: 0.1 µM; binder
MYLK4 = MYLK4 (Homo sapiens, UniProt Q86YV6); settings: 0.1 µM; binder
NEK1 = NEK1 (Homo sapiens, UniProt Q96PY6); settings: 0.1 µM; binder
NEK4 = NEK4 (Homo sapiens, UniProt P51957); settings: 0.1 µM; binder
PDGFRB = PDGFRB (Homo sapiens, UniProt P09619); settings: 0.1 µM; binder
PHKG2 = PHKG2 (Homo sapiens, UniProt P15735); settings: 0.1 µM; binder
PKAC-alpha = PKAC-alpha (Homo sapiens, UniProt P17612); settings: 0.1 µM; binder
PKN1 = PKN1 (Homo sapiens, UniProt Q16512); settings: 0.1 µM; binder
Chain of PKN1 (Q16512 whole entry): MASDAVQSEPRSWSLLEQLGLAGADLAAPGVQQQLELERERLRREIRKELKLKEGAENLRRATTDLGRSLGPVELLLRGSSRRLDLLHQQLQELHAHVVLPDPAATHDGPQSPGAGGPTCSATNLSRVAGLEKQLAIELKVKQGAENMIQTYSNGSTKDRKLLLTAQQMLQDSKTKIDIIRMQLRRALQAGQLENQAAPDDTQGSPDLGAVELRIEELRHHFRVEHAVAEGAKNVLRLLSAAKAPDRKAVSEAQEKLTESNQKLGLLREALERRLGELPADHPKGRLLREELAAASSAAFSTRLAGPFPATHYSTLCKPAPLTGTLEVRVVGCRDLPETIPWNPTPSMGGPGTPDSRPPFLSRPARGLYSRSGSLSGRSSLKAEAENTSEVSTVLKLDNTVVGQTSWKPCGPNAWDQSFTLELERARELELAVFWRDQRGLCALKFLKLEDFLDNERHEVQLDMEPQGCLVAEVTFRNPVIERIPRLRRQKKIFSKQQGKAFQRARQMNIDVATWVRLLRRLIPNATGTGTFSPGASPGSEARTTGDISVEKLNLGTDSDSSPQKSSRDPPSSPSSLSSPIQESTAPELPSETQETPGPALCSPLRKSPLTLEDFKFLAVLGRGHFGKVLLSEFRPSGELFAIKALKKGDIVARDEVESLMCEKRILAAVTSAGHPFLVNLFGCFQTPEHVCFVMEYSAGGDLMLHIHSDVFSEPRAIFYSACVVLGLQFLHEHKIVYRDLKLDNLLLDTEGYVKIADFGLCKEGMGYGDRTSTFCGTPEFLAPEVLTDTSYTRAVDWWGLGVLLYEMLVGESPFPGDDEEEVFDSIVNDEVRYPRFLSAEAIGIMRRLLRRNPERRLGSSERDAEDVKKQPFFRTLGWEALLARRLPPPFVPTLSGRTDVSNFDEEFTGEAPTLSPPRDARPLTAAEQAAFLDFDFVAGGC

PLK2 = PLK2 (Homo sapiens, UniProt Q9NYY3); settings: 0.1 µM; binder
RET(V804M) = RET(V804M) (Homo sapiens, UniProt P07949, V804M); settings: 0.1 µM; binder
SRMS = SRMS (Homo sapiens, UniProt Q9H3Y6); settings: 0.1 µM; binder
SgK110 = SgK110 (Homo sapiens, UniProt P0C264); settings: 0.1 µM; binder
Chain of SgK110 (P0C264 whole entry): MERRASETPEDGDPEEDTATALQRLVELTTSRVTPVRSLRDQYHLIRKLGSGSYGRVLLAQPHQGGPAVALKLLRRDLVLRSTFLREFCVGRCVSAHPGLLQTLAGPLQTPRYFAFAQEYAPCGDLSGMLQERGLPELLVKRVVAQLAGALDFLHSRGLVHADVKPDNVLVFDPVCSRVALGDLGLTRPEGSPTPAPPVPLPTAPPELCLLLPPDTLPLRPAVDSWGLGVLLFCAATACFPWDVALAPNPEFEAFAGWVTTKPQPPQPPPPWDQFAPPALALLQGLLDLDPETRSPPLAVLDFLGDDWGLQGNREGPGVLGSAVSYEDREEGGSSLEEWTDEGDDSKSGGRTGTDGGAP

TGFBR2 = TGFBR2 (Homo sapiens, UniProt P37173); settings: 0.1 µM; binder
TYRO3 = TYRO3 (Homo sapiens, UniProt Q06418); settings: 0.1 µM; binder
p38-delta = p38-delta (Homo sapiens, UniProt O15264); settings: 0.1 µM; binder
Chain of p38-delta (O15264 whole entry): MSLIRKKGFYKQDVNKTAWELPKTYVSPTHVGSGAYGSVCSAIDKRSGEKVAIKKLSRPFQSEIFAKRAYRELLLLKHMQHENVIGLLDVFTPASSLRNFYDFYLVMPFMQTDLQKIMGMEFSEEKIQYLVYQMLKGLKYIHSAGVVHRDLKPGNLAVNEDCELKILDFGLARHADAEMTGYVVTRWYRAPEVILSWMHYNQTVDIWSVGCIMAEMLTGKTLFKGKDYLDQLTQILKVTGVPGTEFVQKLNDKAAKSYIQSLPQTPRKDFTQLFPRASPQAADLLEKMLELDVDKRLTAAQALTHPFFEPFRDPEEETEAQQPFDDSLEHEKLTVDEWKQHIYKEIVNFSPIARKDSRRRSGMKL

Chain of ABL1(F317I) (P00519 whole entry F317I): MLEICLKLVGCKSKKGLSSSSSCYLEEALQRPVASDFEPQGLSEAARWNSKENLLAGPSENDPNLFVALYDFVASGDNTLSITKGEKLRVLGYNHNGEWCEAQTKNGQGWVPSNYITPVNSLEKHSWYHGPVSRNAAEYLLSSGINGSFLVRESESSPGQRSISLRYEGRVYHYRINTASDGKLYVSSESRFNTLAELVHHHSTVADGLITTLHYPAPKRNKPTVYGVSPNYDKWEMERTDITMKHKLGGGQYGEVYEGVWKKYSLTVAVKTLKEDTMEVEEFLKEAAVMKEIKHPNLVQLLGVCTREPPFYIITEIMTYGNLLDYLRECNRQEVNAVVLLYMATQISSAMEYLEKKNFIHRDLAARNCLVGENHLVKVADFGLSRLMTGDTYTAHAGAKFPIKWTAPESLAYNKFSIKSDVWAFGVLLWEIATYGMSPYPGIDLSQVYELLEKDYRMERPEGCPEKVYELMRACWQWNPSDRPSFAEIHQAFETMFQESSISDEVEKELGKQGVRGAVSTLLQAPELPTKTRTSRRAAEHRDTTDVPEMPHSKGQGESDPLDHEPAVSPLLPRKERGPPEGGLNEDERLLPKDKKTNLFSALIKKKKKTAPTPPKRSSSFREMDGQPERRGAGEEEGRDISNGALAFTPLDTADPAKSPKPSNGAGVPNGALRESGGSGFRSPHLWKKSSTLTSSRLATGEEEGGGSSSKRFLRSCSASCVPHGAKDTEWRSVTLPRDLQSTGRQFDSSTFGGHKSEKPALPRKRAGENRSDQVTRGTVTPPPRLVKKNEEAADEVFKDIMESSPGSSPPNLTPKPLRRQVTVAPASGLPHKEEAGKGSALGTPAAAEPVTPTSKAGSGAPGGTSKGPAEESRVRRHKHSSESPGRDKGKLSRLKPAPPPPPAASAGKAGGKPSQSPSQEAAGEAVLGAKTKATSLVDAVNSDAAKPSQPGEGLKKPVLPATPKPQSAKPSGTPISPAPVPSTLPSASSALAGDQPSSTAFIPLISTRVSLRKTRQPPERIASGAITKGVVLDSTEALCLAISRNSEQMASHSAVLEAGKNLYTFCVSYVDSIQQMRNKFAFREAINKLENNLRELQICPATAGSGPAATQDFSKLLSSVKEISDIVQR
Chain of AURKB (Q96GD4 whole entry): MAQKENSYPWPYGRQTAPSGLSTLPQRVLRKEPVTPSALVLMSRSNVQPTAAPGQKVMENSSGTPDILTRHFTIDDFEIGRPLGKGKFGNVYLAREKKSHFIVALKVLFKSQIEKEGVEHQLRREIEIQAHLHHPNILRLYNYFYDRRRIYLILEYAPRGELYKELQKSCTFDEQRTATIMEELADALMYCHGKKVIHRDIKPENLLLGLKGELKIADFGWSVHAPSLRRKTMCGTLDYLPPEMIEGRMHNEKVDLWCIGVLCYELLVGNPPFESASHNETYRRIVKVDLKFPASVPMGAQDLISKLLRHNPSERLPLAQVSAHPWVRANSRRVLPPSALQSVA
Chain of CDKL5 (O76039 whole entry): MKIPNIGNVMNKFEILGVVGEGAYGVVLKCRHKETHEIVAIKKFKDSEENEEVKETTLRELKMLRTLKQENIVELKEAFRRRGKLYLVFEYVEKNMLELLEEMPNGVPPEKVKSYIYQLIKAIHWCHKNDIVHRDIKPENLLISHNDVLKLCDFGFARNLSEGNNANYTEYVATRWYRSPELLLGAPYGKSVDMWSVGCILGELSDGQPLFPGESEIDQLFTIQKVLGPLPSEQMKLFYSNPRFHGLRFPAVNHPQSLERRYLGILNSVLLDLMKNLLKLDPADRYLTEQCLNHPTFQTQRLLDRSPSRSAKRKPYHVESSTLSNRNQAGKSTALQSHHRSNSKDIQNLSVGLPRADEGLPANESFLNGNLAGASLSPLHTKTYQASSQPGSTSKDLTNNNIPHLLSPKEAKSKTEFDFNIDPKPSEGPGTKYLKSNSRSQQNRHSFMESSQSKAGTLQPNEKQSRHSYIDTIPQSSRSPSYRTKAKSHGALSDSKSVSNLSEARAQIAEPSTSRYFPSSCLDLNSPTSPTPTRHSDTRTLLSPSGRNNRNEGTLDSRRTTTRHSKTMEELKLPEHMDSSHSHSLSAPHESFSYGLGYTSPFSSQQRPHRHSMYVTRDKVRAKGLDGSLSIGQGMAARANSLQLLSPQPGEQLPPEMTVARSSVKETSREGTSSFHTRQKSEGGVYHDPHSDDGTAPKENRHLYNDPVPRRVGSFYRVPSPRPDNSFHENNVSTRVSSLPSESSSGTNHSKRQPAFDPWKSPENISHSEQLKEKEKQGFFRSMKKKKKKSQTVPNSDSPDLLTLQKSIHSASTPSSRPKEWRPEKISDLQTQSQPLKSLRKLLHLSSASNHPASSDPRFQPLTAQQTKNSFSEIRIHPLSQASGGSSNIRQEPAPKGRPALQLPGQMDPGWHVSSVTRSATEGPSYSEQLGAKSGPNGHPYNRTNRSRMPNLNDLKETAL

CNc1ncc2cc(-c3ccc(-c4cccc(C)n4)cc3Cl)c(=O)n(C[C@H]3OC[C@H](N)CO3)c2n1 [compound 6, G-5555]
Percent Control (ABL1(F317I); nonphosphorylated): 100%
Percent Control (ABL1(F317I); phosphorylated): 87%
Percent Control (AURKB): 72%
Percent Control (AXL): 100%
Percent Control (CDKL5): 82%
Percent Control (CSNK1D): 90%
Percent Control (DDR2): 88%
Percent Control (EGFR(L858R)): 100%
Percent Control (ERK2): 100%
Percent Control (ERN1): 92%
Percent Control (FGFR1): 100%
Percent Control (FLT3(D835Y)): 94%
Percent Control (IKK-epsilon): 100%
Percent Control (INSR): 95%
Percent Control (KIT(V559D,T670I)): 98%
Percent Control (LOK): 37%
Percent Control (MAK): 90%
Percent Control (MAP3K12): 100%
Percent Control (MYLK4): 100%
Percent Control (NEK1): 100%
Percent Control (NEK4): 100%
Percent Control (PDGFRB): 97%
Percent Control (PHKG2): 100%
Percent Control (PKAC-alpha): 100%
Percent Control (PKN1): 100%
Percent Control (PLK2): 75%
Percent Control (RET(V804M)): 86%
Percent Control (SRMS): 99%
Percent Control (SgK110): 56%
Percent Control (TGFBR2): 100%
Percent Control (TYRO3): 96%
Percent Control (p38-delta): 86%
